Biological target: GluA4 (Rattus norvegicus, UniProt P19493, L505Y/L672V)
Experiment: whole-cell patch clamp in tsA201 cells, agonist dose-response
Assay type: cell-based

Chain of GluA4 (P19493 21-902 L505Y/L672V): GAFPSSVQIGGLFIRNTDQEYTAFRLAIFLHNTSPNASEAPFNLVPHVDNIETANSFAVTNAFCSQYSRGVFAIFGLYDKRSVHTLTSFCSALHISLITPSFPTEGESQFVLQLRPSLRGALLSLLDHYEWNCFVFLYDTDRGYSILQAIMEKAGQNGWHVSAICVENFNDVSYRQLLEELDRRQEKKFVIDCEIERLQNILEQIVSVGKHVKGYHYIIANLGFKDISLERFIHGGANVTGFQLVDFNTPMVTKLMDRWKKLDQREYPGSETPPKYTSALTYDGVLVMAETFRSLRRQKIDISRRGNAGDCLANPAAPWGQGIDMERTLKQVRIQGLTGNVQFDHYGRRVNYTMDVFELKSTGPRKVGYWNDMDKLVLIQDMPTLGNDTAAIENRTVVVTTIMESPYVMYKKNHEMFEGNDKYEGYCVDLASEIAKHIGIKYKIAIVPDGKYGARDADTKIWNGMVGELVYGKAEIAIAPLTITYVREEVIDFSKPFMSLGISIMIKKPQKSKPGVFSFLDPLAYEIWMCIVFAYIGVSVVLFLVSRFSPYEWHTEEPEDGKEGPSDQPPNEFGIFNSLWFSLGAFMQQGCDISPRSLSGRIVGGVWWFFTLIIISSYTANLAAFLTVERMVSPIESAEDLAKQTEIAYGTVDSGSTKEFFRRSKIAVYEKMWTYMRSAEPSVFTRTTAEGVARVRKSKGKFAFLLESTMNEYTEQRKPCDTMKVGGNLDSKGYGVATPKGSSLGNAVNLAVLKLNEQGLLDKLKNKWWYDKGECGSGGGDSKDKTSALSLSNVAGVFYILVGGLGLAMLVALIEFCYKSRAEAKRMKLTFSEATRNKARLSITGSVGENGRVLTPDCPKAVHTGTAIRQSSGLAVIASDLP

C=C(C)[C@H]1CN[C@H](C(=O)O)[C@H]1CC(=O)O [KA, kainate]
EC50: 324 ± 35 µM
